# Tested on: not listed separately
# Assay: decomposition temperature of ionic liquids
# Type: physicochemical
# Conditions: 1-alkyl-pyridinium ionic liquids, Table 3, citation not given
row,SMILES,Decomposition Temperature
1,CCCC[n+]1cccc(C)c1.F[P-](F)(F)(F)(F)F [[1-butyl-3-methylpyridinium] [PF6]],347 °C
2,CCCC[n+]1ccc(C)cc1.[Cl-] [[1-butyl-4-methylpyridinium] Cl],214 °C
3,CCCC[n+]1ccc(C)cc1.F[B-](F)(F)F [[1-butyl-4-methylpyridinium] [BF4]],332 °C
4,CCCC[n+]1ccc(C)cc1.F[P-](F)(F)(F)(F)F [[1-butyl-4-methylpyridinium] [PF6]],358 °C
5,CCCCCC[n+]1ccc(C)cc1.[Cl-] [[1-hexyl-4-methylpyridinium] Cl],218 °C
6,CCCCc1ccc[nH+]c1.F[P-](F)(F)(F)(F)F [[3-n-butyl-pyridinium] [PF6]],125-444 °C
7,F[P-](F)(F)(F)(F)F.c1ccc(CCCc2cc[nH+]cc2)cc1 [[4-phenylpropyl-pyridinium] [PF6]],163-474 °C

# Tested on: rats
# Assay: not given
# Conditions: acute toxicity; cited from earlier work
row,SMILES,LD50 [mg/kg]
1,CCCCCCOCn1cc[n+](C)c1.F[B-](F)(F)F [1-hexyloxymethyl-3-methylimidazolium tetrafluoroborate],1400

# Tested on: not given
# Assay: not given
# Conditions: 1-alkyl-3-methylimidazolium ionic liquids, Table 2, literature citations a-g; cited from earlier work
row,SMILES,Decomposition Temperature [°C]
1,CCC[n+]1ccn(C)c1.[Cl-] [[C3mim] Cl],282
2,CCCn1cc[n+](C)c1.F[P-](F)(F)(F)(F)F [[C3mim] [PF6]],335
3,CCCCn1cc[n+](C)c1.[Cl-] [[C4mim] Cl],254
4,CCCCn1cc[n+](C)c1.[I-] [[C4mim] I],265
5,CCCCn1cc[n+](C)c1.F[P-](F)(F)(F)(F)F [[C4mim] [PF6]],349
6,CCCCCCn1cc[n+](C)c1.[Cl-] [[C6mim] Cl],253
7,CCCCCCn1cc[n+](C)c1.F[P-](F)(F)(F)(F)F [[C6mim] [PF6]],417
8,CCCCCCCCn1cc[n+](C)c1.[Cl-] [[C8mim] Cl],243
